Measured values reported in US20240383887A1, “DEUTERATED IRAK DEGRADERS AND USES THEREOF” (Kymera Therapeutics, Inc., priority 2021, published 2024).

Tests used:
[1] = test system: OCI-LY10 cells; test: CTG Cell Viability Assay with OCI-LY10; type: cell-based; conditions: Homo sapiens, 96 h, 4 days, CellTiter-Glo, read-out: CTG Cell Viability in OCI-LY10: Average external DC50
Description: Compound-mediated viability effect on OCI-LY10 or TMD8 was quantitatively determined using the CellTiter-Glo® Luminescent Cell Viability Assay kit from Promega (Catalog number G7570) following manufacturer's recommended procedures. Briefly, OCI-LY10 cells were seeded into 384 well plates (Grenier Bio-One, Catalog number 781080) with a density of 10,000 cells per well. Compounds were then added to the assay plate with final top concentration of 10 μM and 1:3 dilution series with total of 9 doses. The final DMSO concentration was normalized to 0.2%. The assay plates were incubated at 37° C. for 4 days under 5% CO2. Then the assay plate was equilibrated at room temperature for 10 minutes. To determine cell viability, 30 μL Cell Titer Glo reagent was added to each well and the assay plate was centrifuged at 1000 rpm for 30 second, incubated at room temperature for 10 min, and analyzed by detecting the luminescence using a multimode plate reader (EnVision 2105, PerkinElmer). The data was then analyzed by software Prism 7.0 from GraphPad and the dose response curves were fit using a three-parameter logistic equation to calculate IC50.
The letter codes for IRAK4 IC50 include: A (<0.05 μM), B (0.05-0.1 μM), C (0.1-0.5 μM), D (0.5-1.0 μM), and E (>1.0 μM).

[2] = biological target: T1, IRAK4 (Homo sapiens, UniProt Q9NWZ3); test: IRAK4 MSD degradation in OCI-LY10; type: cell-based; conditions: OCI-LY10 cells, 24 hrs, Meso Scale Discovery; read-out: IRAK4 MSD degradation in OCI-LY10 at 24 hrs: Average external-Abs DC50
T1 construct: endogenous in cells; host or cells: OCI-LY10
T1 sequence (Q9NWZ3 1-460): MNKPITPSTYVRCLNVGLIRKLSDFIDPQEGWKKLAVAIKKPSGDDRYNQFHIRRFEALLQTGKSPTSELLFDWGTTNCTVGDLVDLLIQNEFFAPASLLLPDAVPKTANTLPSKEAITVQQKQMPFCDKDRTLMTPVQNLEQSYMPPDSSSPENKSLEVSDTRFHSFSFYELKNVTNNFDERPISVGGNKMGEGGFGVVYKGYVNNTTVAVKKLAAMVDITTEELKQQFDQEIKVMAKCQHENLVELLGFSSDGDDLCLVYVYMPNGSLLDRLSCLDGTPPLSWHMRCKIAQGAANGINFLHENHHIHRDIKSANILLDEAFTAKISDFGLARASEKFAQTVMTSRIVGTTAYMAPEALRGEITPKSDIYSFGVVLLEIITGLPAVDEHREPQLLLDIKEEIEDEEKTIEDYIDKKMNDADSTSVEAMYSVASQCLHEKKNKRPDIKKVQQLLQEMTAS
Description: Degradation of IRAK4 in OCI-LY10 was quantitatively measured using Meso Scale Discovery technology. OCI-LY10 cells were seeded in 96-well plates (Corning 3799) with a density of 300,000 cells per well in 100 μL fresh media. Compounds were then added to the assay plates with a final top concentration of 1 to 10 μM in a 1:3 dilution series with total of 8 doses. The assay plates were then incubated for 4 to 24 hours at 37 under 5% CO2. The assay plates were then centrifuged for 5 minutes and the cell pellets were treated with 100 μL/well RIPA lysis buffer (Boston BioProducts BP-115D) with proteinase inhibitors. To prepare MSD assay plates (Meso Scale Discovery Catalog number L15XA-3), the plates were coated with 2 μg/mL capture antibody (mouse Anti-IRAK4 antibody [2H9], ab119942) in PBS, at 40 μL/well. […] The assay plates were then incubated at room temperature for 1 hour, washed 3 times with 150 μL/well TBST buffer, and 150 μL/well MSD reading buffer (Meso Scale Discovery catalog number R92TC-2) was added. The plates were then analyzed by a MSD reader (Meso Scale Discovery, Model Quick Plex SQ 120). The data was then analyzed by software Prism 7.0 from GraphPad and the dose-depended IRAK4 degradation were fit using a three-parameter logistic equation to calculate DC50. […]

Molecule `[2H]C([2H])([2H])C(O)(c1cc2nc([C@H]3CC[C@H](CN4CC5(CC(CCNc6cccc7c6C(=O)N(C6CCC(=O)NC6=O)C7=O)C5)C4)CC3)sc2cc1NC(=O)c1cccc(C(F)(F)F)n1)C([2H])([2H])[2H]` (some centres unmarked) [Compound I-1, N-[2-[4-[[6-[2-[[2-(2,6-dioxo-3-piperidyl)-1,3-dioxo-isoindolin-4-yl]amino]ethyl]-2-azaspiro[3.3]heptan-2-yl]methyl]cyclohexyl]-5-[2,2,2-trideuterio-1-hydroxy-1-(trideuteriomethyl)ethyl]-1,3-benzothiazol-6-yl]-6-(trifluoromethyl)pyridine-2-carboxamide] has an IC50 [1] of 100 to 500 nM and a DC50 [2] of less than 10 nM.
